According to PubChem BioAssay (NCI):
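Method: 48-hour compound exposure of cells in 96-well plates, five concentrations, linear interpolation of endpoints. TGI is the concentration that stops growth completely.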

Columns and labels:
Test in all cases: inhibition of tumour cell growth, NCI panel, 48 h
786-0 renal = system: 786-0 renal
A498 renal = system: A498 renal
A549 NSCLC = system: A549 NSCLC
ACHN renal = system: ACHN renal
BT-549 breast = system: BT-549 breast
CAKI-1 renal = system: CAKI-1 renal
CCRF-CEM leukemia = system: CCRF-CEM leukemia
COLO 205 colon = system: COLO 205 colon
DU-145 prostate = system: DU-145 prostate
EKVX NSCLC = system: EKVX NSCLC
HCC-2998 colon = system: HCC-2998 colon
HCT-116 colon = system: HCT-116 colon
HCT-15 colon = system: HCT-15 colon
HL-60(TB) leukemia = system: HL-60(TB) leukemia
HOP-62 NSCLC = system: HOP-62 NSCLC
HOP-92 NSCLC = system: HOP-92 NSCLC
HS 578T breast = system: HS 578T breast
HT29 colon = system: HT29 colon
IGROV1 ovarian = system: IGROV1 ovarian
K-562 leukemia = system: K-562 leukemia
LOX IMVI melanoma = system: LOX IMVI melanoma
M14 melanoma = system: M14 melanoma
MALME-3M melanoma = system: MALME-3M melanoma
MCF7 breast = system: MCF7 breast
MDA-MB-231 breast = system: MDA-MB-231 breast
MDA-MB-435 = system: MDA-MB-435
MDA-N = system: MDA-N
MOLT-4 leukemia = system: MOLT-4 leukemia
NCI-H226 lung = system: NCI-H226 lung
NCI-H23 lung = system: NCI-H23 lung
NCI-H460 lung = system: NCI-H460 lung
NCI-H522 lung = system: NCI-H522 lung
NCI/ADR-RES ovarian = system: NCI/ADR-RES ovarian
OVCAR-3 ovarian = system: OVCAR-3 ovarian
OVCAR-4 ovarian = system: OVCAR-4 ovarian
OVCAR-5 ovarian = system: OVCAR-5 ovarian
OVCAR-8 ovarian = system: OVCAR-8 ovarian
PC-3 prostate = system: PC-3 prostate
RPMI-8226 leukemia = system: RPMI-8226 leukemia
RXF 393 renal = system: RXF 393 renal
SF-268 CNS = system: SF-268 CNS
SF-295 CNS = system: SF-295 CNS
SF-539 CNS = system: SF-539 CNS
SK-MEL-2 melanoma = system: SK-MEL-2 melanoma
SK-MEL-28 melanoma = system: SK-MEL-28 melanoma
SK-MEL-5 melanoma = system: SK-MEL-5 melanoma
SN12C renal = system: SN12C renal
SNB-19 CNS = system: SNB-19 CNS
SNB-75 CNS = system: SNB-75 CNS
SR leukemia = system: SR leukemia
SW-620 colon = system: SW-620 colon
T-47D breast = system: T-47D breast
TK-10 renal = system: TK-10 renal
U251 CNS = system: U251 CNS
UACC-257 melanoma = system: UACC-257 melanoma
UACC-62 melanoma = system: UACC-62 melanoma
KM12 colon = system: KM12 colon
SK-OV-3 ovarian = system: SK-OV-3 ovarian
UO-31 renal = system: UO-31 renal

O=C1CCc2cc([N+](=O)[O-])ccc2O1
TGI (786-0 renal): > 100 µM | TGI (A498 renal): > 100 µM | TGI (A549 NSCLC): > 100 µM | TGI (ACHN renal): > 100 µM | TGI (BT-549 breast): > 100 µM | TGI (CAKI-1 renal): > 100 µM | TGI (CCRF-CEM leukemia): > 100 µM | TGI (COLO 205 colon): > 100 µM | TGI (DU-145 prostate): > 100 µM | TGI (EKVX NSCLC): > 100 µM | TGI (HCC-2998 colon): > 100 µM | TGI (HCT-116 colon): > 100 µM | TGI (HCT-15 colon): > 100 µM | TGI (HL-60(TB) leukemia): > 100 µM | TGI (HOP-62 NSCLC): > 100 µM | TGI (HOP-92 NSCLC): > 100 µM | TGI (HS 578T breast): > 100 µM | TGI (HT29 colon): > 100 µM | TGI (IGROV1 ovarian): > 100 µM | TGI (K-562 leukemia): > 100 µM | TGI (LOX IMVI melanoma): > 100 µM | TGI (M14 melanoma): > 100 µM | TGI (MALME-3M melanoma): > 100 µM | TGI (MCF7 breast): > 100 µM | TGI (MDA-MB-231 breast): > 100 µM | TGI (MDA-MB-435): > 100 µM | TGI (MDA-N): > 100 µM | TGI (MOLT-4 leukemia): > 100 µM | TGI (NCI-H226 lung): > 100 µM | TGI (NCI-H23 lung): > 100 µM | TGI (NCI-H460 lung): > 100 µM | TGI (NCI-H522 lung): > 100 µM | TGI (NCI/ADR-RES ovarian): > 100 µM | TGI (OVCAR-3 ovarian): > 100 µM | TGI (OVCAR-4 ovarian): > 100 µM | TGI (OVCAR-5 ovarian): > 100 µM | TGI (OVCAR-8 ovarian): > 100 µM | TGI (PC-3 prostate): > 100 µM | TGI (RPMI-8226 leukemia): > 100 µM | TGI (RXF 393 renal): > 100 µM | TGI (SF-268 CNS): > 100 µM | TGI (SF-295 CNS): > 100 µM | TGI (SF-539 CNS): > 100 µM | TGI (SK-MEL-2 melanoma): > 100 µM | TGI (SK-MEL-28 melanoma): > 100 µM | TGI (SK-MEL-5 melanoma): > 100 µM | TGI (SN12C renal): > 100 µM | TGI (SNB-19 CNS): > 100 µM | TGI (SNB-75 CNS): > 100 µM | TGI (SR leukemia): > 100 µM | TGI (SW-620 colon): > 100 µM | TGI (T-47D breast): > 100 µM | TGI (TK-10 renal): > 100 µM | TGI (U251 CNS): > 100 µM | TGI (UACC-257 melanoma): > 100 µM | TGI (UACC-62 melanoma): > 100 µM

C=C1CN(C(=O)c2cc3cc(OC)c(OC)c(OC)c3[nH]2)c2cc([N+](=O)[O-])ccc21
TGI (786-0 renal): > 100 µM | TGI (A498 renal): > 100 µM | TGI (A549 NSCLC): > 100 µM | TGI (BT-549 breast): > 100 µM | TGI (CAKI-1 renal): > 100 µM | TGI (COLO 205 colon): > 100 µM | TGI (DU-145 prostate): > 100 µM | TGI (EKVX NSCLC): > 100 µM | TGI (HCC-2998 colon): > 100 µM | TGI (HCT-116 colon): > 100 µM | TGI (HCT-15 colon): > 100 µM | TGI (HL-60(TB) leukemia): > 100 µM | TGI (HOP-92 NSCLC): > 100 µM | TGI (HS 578T breast): 41.9 µM | TGI (HT29 colon): > 100 µM | TGI (IGROV1 ovarian): > 100 µM | TGI (K-562 leukemia): > 100 µM | TGI (KM12 colon): > 100 µM | TGI (LOX IMVI melanoma): > 100 µM | TGI (M14 melanoma): > 100 µM | TGI (MALME-3M melanoma): > 100 µM | TGI (MCF7 breast): > 100 µM | TGI (MDA-MB-231 breast): 88.5 µM | TGI (MDA-MB-435): > 100 µM | TGI (MDA-N): > 100 µM | TGI (MOLT-4 leukemia): > 100 µM | TGI (NCI-H226 lung): > 100 µM | TGI (NCI-H23 lung): > 100 µM | TGI (NCI-H460 lung): > 100 µM | TGI (NCI/ADR-RES ovarian): > 100 µM | TGI (OVCAR-3 ovarian): > 100 µM | TGI (OVCAR-4 ovarian): > 100 µM | TGI (OVCAR-5 ovarian): > 100 µM | TGI (OVCAR-8 ovarian): > 100 µM | TGI (PC-3 prostate): > 100 µM | TGI (RPMI-8226 leukemia): > 100 µM | TGI (RXF 393 renal): > 100 µM | TGI (SF-268 CNS): > 100 µM | TGI (SF-539 CNS): > 100 µM | TGI (SK-MEL-2 melanoma): > 100 µM | TGI (SK-MEL-28 melanoma): > 100 µM | TGI (SK-MEL-5 melanoma): > 100 µM | TGI (SK-OV-3 ovarian): > 100 µM | TGI (SN12C renal): > 100 µM | TGI (SNB-19 CNS): > 100 µM | TGI (SNB-75 CNS): > 100 µM | TGI (SR leukemia): > 100 µM | TGI (SW-620 colon): > 100 µM | TGI (T-47D breast): > 100 µM | TGI (TK-10 renal): > 100 µM | TGI (U251 CNS): > 100 µM | TGI (UACC-257 melanoma): > 100 µM | TGI (UACC-62 melanoma): > 100 µM | TGI (UO-31 renal): > 100 µM
